# In PMC6179058, “Design, synthesis, and biological evaluation of novel iso-flavones derivatives as H3R antagonists” (Journal of Enzyme Inhibition and Medicinal Chemistry, 2018):
# Target: T1, human H3R (histamine receptor 3) (Homo sapiens, UniProt Q9Y5N1)
# T1 construct: gene HRH3; human H3R fused via TEV protease site to Gal4-VP16 transcription factor; stably expressed in H3-bla U2OS cells (Invitrogen) with beta-arrestin/TEV protease fusion and UAS beta-lactamase reporter
# Assay: beta-arrestin/TEV beta-lactamase FRET reporter assay, antagonist mode
# Assay type: cell-based
# Settings: read-out: Inhibit rate (%) at 10 μM
# Description: beta-arrestin/TEV beta-lactamase FRET reporter assay, antagonist mode on human H3R (histamine receptor 3)
# T1 sequence (Q9Y5N1 whole entry, the tested form may be a part): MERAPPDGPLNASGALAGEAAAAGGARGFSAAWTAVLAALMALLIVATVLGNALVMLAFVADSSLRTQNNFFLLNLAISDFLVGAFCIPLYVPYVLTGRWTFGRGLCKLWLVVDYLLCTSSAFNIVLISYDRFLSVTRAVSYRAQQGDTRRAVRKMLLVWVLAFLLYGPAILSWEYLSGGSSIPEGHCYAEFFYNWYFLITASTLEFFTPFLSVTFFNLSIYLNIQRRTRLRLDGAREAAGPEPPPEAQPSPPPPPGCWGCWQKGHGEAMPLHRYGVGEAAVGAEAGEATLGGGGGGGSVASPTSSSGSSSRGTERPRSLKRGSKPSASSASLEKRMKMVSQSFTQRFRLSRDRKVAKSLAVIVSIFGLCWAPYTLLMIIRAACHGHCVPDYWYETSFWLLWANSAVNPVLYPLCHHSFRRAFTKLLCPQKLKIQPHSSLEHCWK
structure (smiles),measurement,value
"O=c1c(-c2ccc(O)cc2)coc2c(CN3CCCC3)c(O)ccc12 [2f, 7-hydroxy-3-(4-hydroxyphenyl)-8-(pyrrolidin-1-ylmethyl)-4H-chromen-4-one]",inhibition at 10 µM,18.7%
"COc1ccc(-c2coc3c(CN4CCCC4)c(O)ccc3c2=O)cc1 [2m, 7-hydroxy-3-(4-methoxyphenyl)-8-(pyrrolidin-1-ylmethyl)-4H-chromen-4-one]",inhibition at 10 µM,14.6%
